From ChEMBL document CHEMBL3745675, “Design and optimization of selective azaindole amide M1 positive allosteric modulators” (Bioorg Med Chem Lett, 2016)

Columns and labels:
Plasma [1] = assay: Fraction unbound in Wistar Hann rat plasma at 5 mg/kg, sc after 1 hr; assay type: ADME, organism-based; settings: in vivo
Plasma [2] = assay: Fraction unbound in Wistar Hann rat plasma at 5 mg/kg, sc after 2 hrs; assay type: ADME, organism-based; settings: in vivo
Plasma [3] = assay: Fraction unbound in Wistar Hann rat plasma at 5 mg/kg, sc after 4 hrs; assay type: ADME, organism-based; settings: in vivo
Plasma [4] = assay: Fraction unbound in Wistar Hann rat plasma at 5 mg/kg, sc after 6 hrs; assay type: ADME, organism-based; settings: in vivo
[5] = Ratio of drug level in brain to plasma in Wistar Hann rat at 5 mg/kg, sc after 1 hr; assay type: ADME, organism-based
[6] = Ratio of drug level in brain to plasma in Wistar Hann rat at 5 mg/kg, sc after 2 hrs; assay type: ADME, organism-based
[7] = Ratio of drug level in brain to plasma in Wistar Hann rat at 5 mg/kg, sc after 4 hrs; assay type: ADME, organism-based
[8] = Ratio of drug level in brain to plasma in Wistar Hann rat at 5 mg/kg, sc after 6 hrs; assay type: ADME, organism-based
[9] = Ratio of unbound AUC in brain to plasma in Wistar Hann rat at 5 mg/kg, sc after 1 hr; assay type: ADME, organism-based; settings: read-out: Ratio AUC
[10] = Ratio of unbound AUC in brain to plasma in Wistar Hann rat at 5 mg/kg, sc after 2 hrs; assay type: ADME, organism-based; settings: brain and plasma, read-out: Ratio AUC
[11] = Ratio of unbound AUC in brain to plasma in Wistar Hann rat at 5 mg/kg, sc after 4 hrs; assay type: ADME, organism-based; settings: brain and plasma, read-out: Ratio AUC
[12] = Ratio of unbound AUC in brain to plasma in Wistar Hann rat at 5 mg/kg, sc after 6 hrs; assay type: ADME, organism-based; settings: brain and plasma, read-out: Ratio AUC
[13] = Drug concentration in Wistar Hann rat CSF at 5 mg/kg, sc after 1 hr; assay type: ADME, organism-based, Cerebrospinal fluid; settings: read-out: Drug uptake
[14] = Drug concentration in Wistar Hann rat CSF at 5 mg/kg, sc after 2 hrs; assay type: ADME, organism-based, Cerebrospinal fluid; settings: read-out: Drug uptake
[15] = Drug concentration in Wistar Hann rat CSF at 5 mg/kg, sc after 4 hrs; assay type: ADME, organism-based, Cerebrospinal fluid; settings: read-out: Drug uptake
[16] = Drug concentration in Wistar Hann rat CSF at 5 mg/kg, sc after 6 hrs; assay type: ADME, organism-based, Cerebrospinal fluid; settings: read-out: Drug uptake
[17] = Ratio of drug level in CSF to plasma in Wistar Hann rat at 5 mg/kg, sc after 1 hr; assay type: ADME, organism-based; settings: CSF and plasma
[18] = Ratio of drug level in CSF to plasma in Wistar Hann rat at 5 mg/kg, sc after 2 hrs; assay type: ADME, organism-based; settings: CSF and plasma
[19] = Ratio of drug level in CSF to plasma in Wistar Hann rat at 5 mg/kg, sc after 4 hrs; assay type: ADME, organism-based; settings: CSF and plasma
[20] = Ratio of drug level in CSF to plasma in Wistar Hann rat at 5 mg/kg, sc after 6 hrs; assay type: ADME, organism-based; settings: CSF and plasma
[21] = Ratio of unbound AUC in CSF to plasma in Wistar Hann rat at 5 mg/kg, sc after 1 hr; assay type: ADME, organism-based; settings: CSF and plasma, read-out: Ratio AUC
[22] = Ratio of unbound AUC in CSF to plasma in Wistar Hann rat at 5 mg/kg, sc after 2 hrs; assay type: ADME, organism-based; settings: CSF and plasma, read-out: Ratio AUC
[23] = Ratio of unbound AUC in CSF to plasma in Wistar Hann rat at 5 mg/kg, sc after 4 hrs; assay type: ADME, organism-based; settings: CSF and plasma, read-out: Ratio AUC
[24] = Ratio of unbound AUC in CSF to plasma in Wistar Hann rat at 5 mg/kg, sc after 6 hrs; assay type: ADME, organism-based; settings: CSF and plasma, read-out: Ratio AUC
[25] = Cmax in Wistar Hann rat plasma at 5 mg/kg, sc; assay type: ADME, organism-based; set-up: dose 5 mg/kg, route subcutaneous
[26] = Cmax in Wistar Hann rat brain at 5 mg/kg, sc; assay type: ADME, organism-based; set-up: dose 5 mg/kg, route subcutaneous
[27] = Cmax in Wistar Hann rat CSF at 5 mg/kg, sc; assay type: ADME, organism-based, Cerebrospinal fluid; set-up: dose 5 mg/kg, route subcutaneous
[28] = Tmax in Wistar Hann rat plasma at 5 mg/kg, sc; assay type: ADME, organism-based
[29] = Tmax in Wistar Hann rat brain at 5 mg/kg, sc; assay type: ADME, organism-based
[30] = Tmax in Wistar Hann rat CSF at 5 mg/kg, sc; assay type: ADME, organism-based, Cerebrospinal fluid
[31] = AUC (0 to tlast) in Wistar Hann rat plasma at 5 mg/kg, sc; assay type: ADME, organism-based
[32] = AUC (0 to tlast) in Wistar Hann rat brain at 5 mg/kg, sc; assay type: ADME, organism-based
[33] = AUC (0 to tlast) in Wistar Hann rat CSF at 5 mg/kg, sc; assay type: ADME, organism-based, Cerebrospinal fluid
[34] = AUC (0 to infinity) in Wistar Hann rat plasma at 5 mg/kg, sc; assay type: ADME, organism-based; set-up: dose 5 mg/kg, time infinity, route subcutaneous
[35] = AUC (0 to infinity) in Wistar Hann rat brain at 5 mg/kg, sc; assay type: ADME, organism-based; set-up: dose 5 mg/kg, route subcutaneous, time infinity
[36] = AUC (0 to infinity) in Wistar Hann rat CSF at 5 mg/kg, sc; assay type: ADME, organism-based, Cerebrospinal fluid; set-up: dose 5 mg/kg, time infinity, route subcutaneous

## Cn1ccc(-c2ccc(Cn3cc(C(=O)N[C@H]4CCOC[C@@H]4O)c4ncccc43)cc2)n1
Plasma [1]
  Cp(f): 463 nM
Plasma [2]
  Cp(f): 502 nM
Plasma [3]
  Cp(f): 293 nM
Plasma [4]
  Cp(f): 197.5 nM
[5]
  Kp at 1 h: 0.21
[6]
  Kp at 2 h: 0.18
[7]
  Kp at 4 h: 0.22
[8]
  Kp at 6 h: 0.19
[9]
  Kp uu at 1 h: 0.15
[10]
  Kp uu at 2 h: 0.13
[11]
  Kp uu at 4 h: 0.16
[12]
  Kp uu at 6 h: 0.14
[13]
  concentration at 1 h: 133 nM
[14]
  concentration at 2 h: 144 nM
[15]
  concentration at 4 h: 76.2 nM
[16]
  concentration at 6 h: 54.3 nM
[17]
  Kp at 1 h: 0.03
[18]
  Kp at 2 h: 0.03
[19]
  Kp at 4 h: 0.02
[20]
  Kp at 6 h: 0.02
[21]
  Kp uu at 1 h: 0.29
[22]
  Kp uu at 2 h: 0.29
[23]
  Kp uu at 4 h: 0.27
[24]
  Kp uu at 6 h: 0.27
[25]
  Cmax: 2360 ng/mL
[26]
  Cmax: 453 ng/mL
[27]
  Cmax: 62.2 ng/mL
[28]
  Tmax: 2 h
[29]
  Tmax: 1 h
[30]
  Tmax: 2 h
[31]
  AUC(0-t): 9400 ng·h/mL
[32]
  AUC(0-t): 1830 ng·h/mL
[33]
  AUC(0-t): 240 ng·h/mL
[34]
  AUC(0-inf): 13400 ng·h/mL
[35]
  AUC(0-inf): 2680 ng·h/mL
[36]
  AUC(0-inf): 380 ng·h/mL
